In experiment [1] the target is T1, human P2X2 receptor (Homo sapiens, UniProt Q9UBL9).
T1 construct: expressed in transfected cells; host or cells: S. cerevisiae BY4741 background, P2X2 genome-integrated under a galactose-inducible promoter
T1 sequence (Q9UBL9 1-471): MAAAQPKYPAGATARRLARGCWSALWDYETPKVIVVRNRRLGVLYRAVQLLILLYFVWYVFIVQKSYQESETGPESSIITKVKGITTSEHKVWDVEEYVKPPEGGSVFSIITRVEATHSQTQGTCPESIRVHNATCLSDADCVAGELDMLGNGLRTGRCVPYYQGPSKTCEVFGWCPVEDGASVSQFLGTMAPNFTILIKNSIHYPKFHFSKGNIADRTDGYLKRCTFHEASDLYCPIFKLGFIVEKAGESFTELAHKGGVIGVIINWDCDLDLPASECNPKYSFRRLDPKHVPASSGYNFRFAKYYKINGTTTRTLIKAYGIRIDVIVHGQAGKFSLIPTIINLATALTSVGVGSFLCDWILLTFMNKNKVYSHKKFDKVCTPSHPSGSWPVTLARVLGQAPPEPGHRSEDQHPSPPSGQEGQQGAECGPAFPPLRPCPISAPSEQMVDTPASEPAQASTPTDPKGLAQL
As to the kind of experiment: GCaMP calcium assay of P2X2 expressed in yeast S. cerevisiae, agonist response. The format is cell-based. To be noted: yeast; for EC50: read-out: EC50. An excerpt: Although P2X receptors are expressed in many eukaryotic organisms including some fungi ([24]), they are not present in S. cerevisiae. For recombinant expression to yield functional P2X channels, receptor proteins must be correctly folded, assembled into trimers, and efficiently trafficked to the plasma membrane. To assess whether P2X ion channels could functionally gate in S. cerevisiae the canonical isoforms of P2X1-7 were co-expressed with aequorin, a calcium-activated photoprotein from the jellyfish Aequorea victoria.
(§1) Genetic knockouts of the calnexin homolog (ΔCne1p) and vacuolar calcium transporter (Δ Vcx1p) (n = 3) were compared to the WT yeast strain (n = 2). […] Statistical analysis was performed using one-way ANOVA with Dunnett’s multiple comparisons test where ∗∗ is p ≤ 0.01. […] Yeast were injected with ATP at 21 s and onset rates from the last six points (40–48 s) were used for calculating the dose response in (D). E and F, kinetic and dose–response measurements of P2X2 with the GCaMP reporter with ATP (n = 4), partial agonist BzATP (n = 3), and agonist 2-chloro-ATP (n = 4). Figures (D and F) share the figure legend with (C). […] Suramin was pre-equilibrated with P2X2-yeast for 10 min and 5 μM ATP was injected.
To expand the assay throughput to accommodate several 96-well plates at a time, we required the acquisition of short-duration signals. Since GCaMP signals are typically measured in terms of ΔF/F0, where ΔF is Fmax-Fmin, and since the signal takes several minutes to reach Fmax, we instead attempted to correlate the rate of signal onset (rather than its amplitude) with channel activity.
Having optimized our yeast strains and assay throughput, we sought to further validate the function of human P2X2 in the yeast host.
GCaMP assays were performed as follows. P2X2 GCaMP strains were designed with a bi-cistronic reporter, in which the GCaMP protein was followed by a 2A peptide and a mScarletI reporter ([53]). The co-translated mScarletI was designed to act as a control for plasmid loss, GCaMP breakage via nonsense mutation, and contamination. […] P2X2-GCaMP strains were cultured and induced as previously described. Samples were induced for 24 h to allow for the accumulation of the mature GCaMP protein. Cells were washed three times in 0.1 M MES/Tris buffer and resuspended with MES/Tris with supplemental calcium. Cells were loaded onto a black, clear bottom microplate and imaged on a FlexStation3 plate reader. Samples were imaged in “flex” mode. Samples were imaged for 48 s at an interval of 1.6 s. Fluorescence was measured with an excitation at 485 nm, and emission 525 nm. At the 21 s mark, 100 μl ligand solution was transferred to the cells. For strains with mScarlet, fluorescence was read with excitation 570 nm/emission 610 nm. Slopes were calculated from the last 6 points of measurement and were normalized to the positive control samples. Any replicate in which the mScarlet value was measured to be over 2 standard deviations less than the mean for that set was discarded from further analysis.

In experiment [2] the test system is P2X2. To be noted: mammalian cells; cited from earlier work.
For experiment [3], the system named is P2X2. The arrangement: method as in PMID 12885270. To be noted: read-out: reported IC50 values; cited from earlier work.
The target in experiment [4] is T1, human P2X2 receptor. The experiment in a line: Suramin inhibition of ATP-stimulated P2X2 gating in yeast, GCaMP. Format: cell-based. To be noted: suramin pre-equilibrated 10 min, 5 μM ATP injected, n = 4; read-out: IC50 (second value in brackets) (converted). As to the method:
as §1, with “injected. […]” for “injected.”
GCaMP assays were performed as follows. […] Cells were loaded onto a black, clear bottom microplate and imaged on a FlexStation3 plate reader. […] Fluorescence was measured with an excitation at 485 nm, and emission 525 nm. […] For strains with mScarlet, fluorescence was read with excitation 570 nm/emission 610 nm. Slopes were calculated from the last 6 points of measurement and were normalized to the positive control samples. Any replicate in which the mScarlet value was measured to be over 2 standard deviations less than the mean for that set was discarded from further analysis.

[5] abbreviates: kinetic and dose-response GCaMP assay, Fig. 1E-F.

The values below come from article PMC11063903, “Engineering a human P2X2 receptor with altered ligand selectivity in yeast” (The Journal of Biological Chemistry, 2024).

As usually defined, the EC50 is the concentration that produces a half-maximal response. Usually IC50 stands for the midpoint of a concentration-inhibition curve.

On to “2′(3′)-O-(4-Benzoylbenzoyl)adenosine-5′-triphosphate [BzATP]”, for which, on human P2X2 receptor [1] (GCaMP kinetic assay), the “peak amplitudes relative to the canonical ATP ligand” value is recorded as “less than 50%”. In addition, on human P2X2 receptor [1] (setting [5]), the pEC50 came out at 5.89 ± 0.096 M and the EC50 amounted to 1.28 µM.
In the case of `Nc1nc(Cl)nc2c1ncn2[C@@H]1O[C@H](COP(=O)(O)OP(=O)(O)OP(=O)(O)O)[C@@H](O)[C@H]1O` [2-Chloro ATP, 2-Chloro-Adenosinetriphosphate], the EC50 on human P2X2 receptor [1] (setting [5]) is 1 µM; in the experiment on P2X2 [2] it was 2.5 µM.
For the compound `Cc1ccc(C(=O)Nc2ccc(S(=O)(=O)O)c3cc(S(=O)(=O)O)cc(S(=O)(=O)O)c23)cc1NC(=O)c1cccc(NC(=O)Nc2cccc(C(=O)Nc3cc(C(=O)Nc4ccc(S(=O)(=O)O)c5cc(S(=O)(=O)O)cc(S(=O)(=O)O)c45)ccc3C)c2)c1` [suramin], the IC50 in the experiment on P2X2 [3] was 10 µM; at human P2X2 receptor [4], 26.9 µM.
